Experimental data taken from patent US6534073B2, “Skin care cosmetic compositions containing carboxymethylates of branched alcohols and/or ethoxylates thereof” (Unilever Home & Personal Care USA division of Conopco, Inc., priority 2000, dated 2003).
Like-named read-outs stand apart in the source and are kept apart here. Marks after values point to notes of the source that are not given here.

Assays:
[1] = test system: human sebocytes; assay: Inhibition of sebocyte lipogenesis (14C-acetate incorporation); format: cell-based; details: for inhibition of lipogenesis (result in words): summary of Tables 2 and 3
Description: This example provided data on inhibition of sebocyte lipogenesis.
Secondary cultures of human sebocytes obtained from an adult […] were grown in 48-well tissue culture plates (Costar Corp.; Cambridge, Mass.) or 96-well tissue culture plates (Packard Co.; Meriden, Conn.) until confluent. Sebocyte growth medium consisted of Clonetics Keratinocyte Basal Medium (KBM) 5 supplemented with 14 μg/ml bovine pituitary extract, 0.4 μg/ml hydrocortisone, 5 μg/ml insulin, 10 ng/ml epidermal growth factor, 1.2×10^−10 M cholera toxin, 100 units/ml penicillin, and 100 μg/ml streptomycin. All cultures were incubated at 37° C. in the presence of 7.5% CO2. Medium was changed three times per week.
On the day of experimentation, the growth medium was removed and the sebocytes washed three times with sterile Dulbecco's Modified Eagle Medium (DMEM; phenol red free). Fresh DMEM was added to each sample (duplicates, triplicates, or quadruplicates depending on the experiment) with 5 μL of test agent solubilized in ethanol or sterile, distilled water either alone or in the presence of one or 10 μM of retinol. Controls consisted of addition of ethanol alone, retinol alone or phenol red, which has estrogen-like activity and was included as a positive control.
Each plate was returned to the incubator for 20 hours followed by the addition of ^14C-acetate buffer (5 mM final concentration, 56 mCi/mmol specific activity). Sebocytes were returned to the incubator for four hours after which each culture was rinsed three times with phosphate buffered saline to remove unbound label. Radioactive label remaining in the sebocytes was harvested and counted using a Beckman scintillation counter.

[2] = test system: procollagen I production by neonatal human dermal fibroblasts; assay: Procollagen I production by fibroblasts (slot blot, densitometry); format: cell-based; details: for Average OD Reading / Fold increase Over Control: Table 4; for Average OD Reading: procollagen I densitometer reading, control 0.783; for Fold increase Over Control / % Increase (+) or % decrease (−) over control: procollagen I; for % Increase (+) or % decrease (−) over control: positive control, concentration not given
Description: This example measured production of procollagen I by fibroblasts in response to treatment with various straight chain and branched alcohols alone.
Neonatal human dermal fibroblasts were purchased from Clonetics Corp., San Diego, Calif. All materials for cell culture were purchased from Life Technologies, N.Y. (and used in passages 5-10). Cells were seeded at a density of approximately 10,000/well in the inner 48 wells of a 96-well plate in a medium containing DMEM (Dulbecco's Modified Eagle's Medium), high-glucose supplemented with 2 mM L-glutamine, 10% fetal bovine serum, and antibiotic and antimycotic solutions. Cells were then grown to confluence for 2 days. At confluence, the medium was removed and cells were washed with serum-free DMEM, and each well dosed with 200 μl of a solution of a test compound in serum-free DMEM. Each dosing was replicated in a total of six wells. […] After 24 hours, the test compound solution or the control solution was removed and cells redosed with 100 μl of a solution of a test compound in serum-free DMEM.
Nitrocellulose membrane and 3 sheets of filter paper were soaked in TRIS buffered saline (TBS, pH 7.3.). BioRad slot blot apparatus (BioRad Labs, CA) was set up with 3 sheets filter paper on bottom, membrane on top, and tightened. […] TBS was added per well. Vacuum was used to suck TBS through membrane. The test compound solution or control was vortexed, then 100 μl was loaded per well and gravity filtered. Procollagen from the test solution was bound to the membrane at this point in the procedure. Membrane was removed from the apparatus, excess cut off, and bottom right corner notched for orientation. The membrane was placed in blocking solution (5% milk powder in Dulbecco's phosphate buffered saline) overnight at 4° C., with shaking. The membrane was then incubated for 1.5 hrs at room temperature with 1.5 mL Rat Anti-Human Procollagen Amino-Terminal Ab (Chemicon MAB1912) in TBS with 0.1% BSA (Bovine Serum Albumin) (ratio of antibody to buffer/BSA was 1:100) in a sealed bag with shaking. The membrane was then removed; washed 3 times for 5 minutes in TBS/0.1% Tween. The membrane was then incubated for 1 hour at room temperature in 2 mL of Biotinylated Anti-Rat Peroxidase-Conjugated Ab (Vector Labs) in TBS with 0.1% BSA (ratio of antibody to buffer/BSA was 1:1000) in a sealed bag with shaking. The membrane was then stained using the following solution:
12.5 mg 3-amino 9-ethyl carbazole (Sigma)
3.125 (approximately) mL DMF (N,N-dimethylformamide, from Sigma)
The membrane was stained until color developed and the reaction stopped with 2 washes for 10 minutes in tap water. The blot was scanned on a Bio-Rad GS700 Image Analysis densitometer. Percent change from control was calculated from densitometer readings as follows: [(Reading for test compound-Reading for control)/Reading for control]*100. Control has a reading of 100%. Statistical significance (p value) was calculated using student's t-test.
TGF-B is a positive control, ensuring the integrity of the assay: transforming growth factor beta is known to increase procollagen I in fibroblasts.
This example measured production of procollagen I by fibroblasts in response to treatment with various test compounds.
The experiment was conducted as described in Example 1 above. Fold increase was calculated as a ratio of densitometer reading for cells treated with a test compound over control.

[3] = Homo sapiens, Table 2, 14C-acetate label in sebocytes, read-out: % of Control
[4] = Homo sapiens, Table 3, 14C-acetate label in sebocytes, read-out: % of Control
[5] = Table 2, 14C-acetate label in sebocytes, 1 μM
[6] = Table 2, 14C-acetate label in sebocytes, 10 μM
[7] = Table 2, 14C-acetate label in sebocytes, 100 μM

`O=S1(=O)OC(c2ccc(O)cc2)(c2ccc(O)cc2)c2ccccc21` [Phenol Red, reference compound] showed an activity at 28 µM [1, 3] of 56.5%, an activity at 280 µM [1, 3] of 43.3% and an activity at 28 µM [1, 4] of 92%. For the same molecule, the activity at 280 µM [1, 4] was 61.7%.

`CC1=C(/C=C/C(C)=C/C=C/C(C)=C/CO)C(C)(C)CCC1` [Retinol, reference compound] gave an activity at 1 µM ([1]; Homo sapiens, Table 3, 14C-acetate label in sebocytes, 1 μM, read-out: % of Control) of 91.8% and an activity at 10 µM ([1]; Homo sapiens, Table 3, 14C-acetate label in sebocytes, 10 μM, read-out: % of Control) of 106%.

“Iso-tridecyl carboxymethylate (sodium salt)” was tested, and the “% of Control” value [1, 5] was 81.5* %, the “% of Control” value [1, 6] was 49.6* % and the “% of Control” value [1, 7] was 1.2* %. The “% of Control” value ([1]; Table 3, 14C-acetate label in sebocytes, 1 μM) was 75.8* %, the “% of Control” value ([1]; Table 3, 14C-acetate label in sebocytes, 10 μM) was 66.0* % and the “inhibition of lipogenesis (result in words)” value [1] was “improved inhibition of lipogenesis”.

For “TGF-B: transforming growth factor beta, positive control known to increase procollagen I in fibroblasts [reference compound]”, the “Average OD Reading” value ([2]; 0.001%) was 1.348, the “Fold increase Over Control” value ([2]; 0.001%) was 1.72* Fold and the “% Increase (+) or % decrease (−) over control” value ([2]; Table 1 Experiment 1) was “+50* %”. For the same molecule, the “% Increase (+) or % decrease (−) over control” value ([2]; Table 1 Experiment 2) was “+140* %”.

In the case of iso-tridecyl carboxymethylate, the “Average OD Reading” value ([2]; 0.0001%) is reported as 0.777, the “Average OD Reading” value ([2]; 0.001%) is reported as 1.295 and the “Fold increase Over Control” value ([2]; 0.0001%) is reported as 0.99 Fold. The “Fold increase Over Control” value ([2]; 0.001%) was 1.65* Fold, the “collagen synthesis by fibroblasts (result in words)” value ([2]; summary of Tables 1 and 4) was “increased collagen production” and the “% of Control” value [1, 5] was 80.0* %. For the same molecule, the “% of Control” value [1, 6] was 58.2* %, the “% of Control” value [1, 7] was 1.4* % and the “inhibition of lipogenesis (result in words)” value [1] was “enhanced inhibition of lipogenesis at all tested concentrations”.
